Test results: paper PMC4019573, “Characterization of Protein Phosphatase 5 from Three Lepidopteran Insects: Helicoverpa armigera, Mythimna separata and Plutella xylostella” (PLoS ONE, 2014)

Columns and labels:
[1] = test system: E. coli expressed PP5 from T. brucei; design: method as in PMID 11290414; conditions: cited from earlier work
recombinant HaPP5 [2] = biological target: T1, recombinant HaPP5 (Helicoverpa armigera, UniProt A0A059TAS5); experiment: Arachidonic acid stimulation assay and kinetics of recombinant HaPP5, pNPP as substrate; format: biochemical
T1 sequence (A0A059TAS5 1-490): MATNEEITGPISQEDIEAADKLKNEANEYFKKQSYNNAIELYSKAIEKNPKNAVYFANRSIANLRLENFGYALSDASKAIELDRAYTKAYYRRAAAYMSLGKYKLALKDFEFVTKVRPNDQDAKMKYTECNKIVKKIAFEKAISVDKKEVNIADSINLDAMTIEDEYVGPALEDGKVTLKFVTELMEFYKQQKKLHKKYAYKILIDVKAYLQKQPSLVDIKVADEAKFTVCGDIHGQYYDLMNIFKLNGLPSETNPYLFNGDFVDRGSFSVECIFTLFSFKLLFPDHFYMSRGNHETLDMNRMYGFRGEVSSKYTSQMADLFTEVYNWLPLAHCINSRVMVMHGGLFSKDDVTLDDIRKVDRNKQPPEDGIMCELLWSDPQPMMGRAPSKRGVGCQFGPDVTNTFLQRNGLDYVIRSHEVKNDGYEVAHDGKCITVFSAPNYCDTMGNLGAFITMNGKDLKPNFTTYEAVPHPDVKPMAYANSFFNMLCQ
Source text: (§1) Non-enzyme samples were taken as controls.

recombinant PxPP5 [3] = biological target: T2, recombinant PxPP5 (Plutella xylostella, UniProt W0FSW2); experiment: Arachidonic acid stimulation assay and kinetics of recombinant PxPP5, pNPP as substrate; format: biochemical
T2 sequence (W0FSW2 1-491): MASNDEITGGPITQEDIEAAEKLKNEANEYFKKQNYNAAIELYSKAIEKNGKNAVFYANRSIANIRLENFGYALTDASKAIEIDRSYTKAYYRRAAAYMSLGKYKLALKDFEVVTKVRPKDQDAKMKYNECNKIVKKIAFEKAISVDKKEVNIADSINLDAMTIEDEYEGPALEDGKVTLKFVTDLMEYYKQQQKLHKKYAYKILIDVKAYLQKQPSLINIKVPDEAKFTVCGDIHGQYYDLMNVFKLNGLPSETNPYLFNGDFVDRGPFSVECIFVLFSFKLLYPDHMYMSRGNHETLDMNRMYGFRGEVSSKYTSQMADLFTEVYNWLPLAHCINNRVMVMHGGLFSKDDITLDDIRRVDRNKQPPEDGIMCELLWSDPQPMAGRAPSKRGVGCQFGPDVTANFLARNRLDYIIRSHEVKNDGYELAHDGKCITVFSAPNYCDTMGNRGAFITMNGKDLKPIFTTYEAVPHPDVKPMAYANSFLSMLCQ
Source text: as §1

[4] = test system: total crude protein phosphatases; experiment: Arachidonic acid stimulation of crude PPP extracts, phosphopeptides as substrate; format: biochemical, H. armigera, M. separata and P. xylostella; conditions: larvae extracts of three insects
Method: (§2) One gram of 4th instar larvae of each insects were ground into a homogeneous state in ice-cold 20 mM Tris (pH = 7.5), 0.1% β-mercaptoethanol, 1 mM EDTA, 1 mM benzamidine and 1 mM (PMSF). This was then centrifuged at 12,000 g for 30 min at 4°C. The supernatant extract was desalted using Sephadex G-25 spin columns (GE Healthcare, Boston, MA, USA) to remove the contaminating free phosphate as described in the instruction manual. Each insect extract contained three biological replicates. Protein concentration was estimated using the method of Bradford.
(§3) Phosphatases activity of crude extract was determined towards phosphopeptides using PPP assay kit (Promega, Madison, WI, USA) in half-area 96-well plates (Corning, NY, USA) following the manual instruction. In brief, 1.0 µg protein was mixed in assay buffer of 50 mM imidazole (pH 7.2), 0.2 mM EGTA, 0.02% β-mercaptoethanol, 0.1 mg ml^−1 BSA, and pre-warmed to 30°C. Reaction was initiated after adding 100 µM phosphopeptides, RRA(pT)VA to obtain a final volume of 50 µL and incubated at 30°C for 15 min. The reaction was stopped by adding 50 µL of molybdate dye/additive mixture and incubated for an additional 15 min at room temperature for color development. Control samples were determined without enzyme.

[5] = test system: E. coli expressed PP5 from E. chinensis; design: method as in PMID 24351830; conditions: cited from earlier work
[6] = test system: E. coli expressed PP5 from P. falciparum; design: method as in PMID 11897131; conditions: cited from earlier work
recombinant MsPP5 [7] = biological target: T3, recombinant MsPP5 (Mythimna separata, UniProt A0A059TAW5); experiment: Arachidonic acid stimulation assay and kinetics of recombinant MsPP5, pNPP as substrate; format: biochemical
T3 sequence (A0A059TAW5 1-490): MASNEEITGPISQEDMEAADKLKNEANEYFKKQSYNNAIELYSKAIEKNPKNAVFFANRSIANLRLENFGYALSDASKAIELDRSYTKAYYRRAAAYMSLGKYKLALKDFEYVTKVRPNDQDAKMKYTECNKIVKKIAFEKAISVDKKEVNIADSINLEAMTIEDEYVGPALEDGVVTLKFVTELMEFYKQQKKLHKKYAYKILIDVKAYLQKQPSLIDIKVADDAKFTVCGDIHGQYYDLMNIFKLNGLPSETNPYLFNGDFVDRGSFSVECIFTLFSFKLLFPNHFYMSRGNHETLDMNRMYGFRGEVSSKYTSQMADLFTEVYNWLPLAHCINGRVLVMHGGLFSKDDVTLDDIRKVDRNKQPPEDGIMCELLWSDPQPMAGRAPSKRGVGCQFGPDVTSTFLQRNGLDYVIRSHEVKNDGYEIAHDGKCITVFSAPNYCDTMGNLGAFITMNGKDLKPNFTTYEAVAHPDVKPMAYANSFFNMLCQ
Source text: as §1

recombinant PxPP5 [8] = biological target: T2, recombinant PxPP5; experiment: Inhibition assay of recombinant PxPP5 phosphatase activity, pNPP as substrate; format: biochemical
Method: as §1
(§4) Three candidate inhibitors were dissolved in dimethyl sulphoxide (DMSO) to provide stock solutions of 10 mM for okadaic acid, 100 mM for cantharidin, and 200 mM for endothall, respectively. All solutions were diluted to the desired concentrations with assay buffer before use. Assays were carried out using pNPP as substrate for purified proteins or using RRA(pT)VA as substrate for crude PPP extract. Before initiating the reaction, the enzyme was incubated with the chemicals for 5 min at room temperature. A dose-response assay was used to determine the IC50 values. The non-enzyme reaction was taken as the background control, while the non-inhibitor reaction was used as the full-activity control.

[9] = test system: three lepidopteran PP5 proteins; experiment: Inhibition of the three recombinant lepidopteran PP5 proteins (stated jointly), pNPP as substrate; format: biochemical, H. armigera, M. separata and P. xylostella; conditions: range over HaPP5, MsPP5 and PxPP5
Method: as §1, §4

recombinant HaPP5 [10] = biological target: T1, recombinant HaPP5; experiment: Inhibition assay of recombinant HaPP5 phosphatase activity, pNPP as substrate; format: biochemical
Method: as §1, §4

recombinant MsPP5 [11] = biological target: T3, recombinant MsPP5; experiment: Inhibition assay of recombinant MsPP5 phosphatase activity, pNPP as substrate; format: biochemical
Method: as §1, §4

crude PPP extracts = experiment: Inhibition of phosphatase activity of crude PPP extracts, phosphopeptide RRA(pT)VA as substrate; format: biochemical, H. armigera, M. separata and P. xylostella; conditions: treated with 1.0 µM inhibitor, range over three insect extracts
Method: as §2, §3, §4

E. chinensis PP5 = test system: E. chinensis PP5; design: method as in PMID 24351830; conditions: cited from earlier work
[12] = substrate: O=[N+]([O-])c1ccc(OP(=O)(O)O)cc1; experiment: purified protein, by the assay type; conditions: pH 7.5; 30.0 °C
[13] = 0.25 h, up to, dose dependent, maximum activation at 150 µM
[14] = addition of 150 µM arachidonic acid
[15] = up to, dose dependent, maximum activation at 150 µM, 15 min, 150 µM

Molecule: CCCCC/C=C\C/C=C\C/C=C\C/C=C\CCCC(=O)O [arachidonic acid]
- Maximum activation of E. coli expressed PP5 from T. brucei [1]: 2.6 fold
- maximal fold induction at 150 µM (recombinant HaPP5 [2]; [13]): ~2
- Elevation of Vmax value of HaPP5 (recombinant HaPP5 [2]; [14]): 1.33 fold
- Reduction of Km value of HaPP5 (recombinant HaPP5 [2]; [14]): 2.07 fold
- Stimulation of activity of recombinant HaPP5 (recombinant HaPP5 [2]; [15]): up to 1.78 fold
- maximal fold induction at 150 µM (recombinant PxPP5 [3]; [13]): ~2
- Elevation of Vmax value of PxPP5 (recombinant PxPP5 [3]; [14]): 1.26 fold
- Reduction of Km value of PxPP5 (recombinant PxPP5 [3]; [14]): 2.16 fold
- Stimulation of activity of recombinant PxPP5 (recombinant PxPP5 [3]; [15]): ≤ 1.81 fold
- Stimulation of phosphatase activity of total crude extracts [4]: no significant stimulation
- Maximum activation of E. coli expressed PP5 from E. chinensis [5]: 2.3 fold
- Maximum activation of E. coli expressed PP5 from P. falciparum [6]: 2.0 fold
- maximal fold induction at 150 µM (recombinant MsPP5 [7]; [13]): ~2
- Elevation of Vmax value of MsPP5 (recombinant MsPP5 [7]; [14]): 1.54 fold
- Reduction of Km value of MsPP5 (recombinant MsPP5 [7]; [14]): 1.86 fold
- Stimulation of activity of recombinant MsPP5 (recombinant MsPP5 [7]; [15]): ≤ 1.99 fold

Molecule: C[C@@]12C(=O)OC(=O)[C@]1(C)[C@H]1CC[C@@H]2O1 [cantharidin]
- IC50 (recombinant PxPP5 [8]): 730 ± 270 nM
- IC50 [9]: 730 to 2380 nM
- IC50 (recombinant HaPP5 [10]): 1280 ± 310 nM
- IC50 (recombinant MsPP5 [11]): 2380 ± 480 nM
- Residual phosphatase activities of the three crude extracts (crude PPP extracts): 57.65–61.23%

Molecule: O=C(O)[C@@H]1[C@H](C(=O)O)[C@H]2CC[C@@H]1O2 [endothall]
- IC50 (recombinant PxPP5 [8]): 6840 ± 470 nM
- IC50 (recombinant HaPP5 [10]): 19300 ± 2340 nM
- IC50 (recombinant MsPP5 [11]): 12600 ± 1620 nM
- Residual phosphatase activities of the three crude extracts (crude PPP extracts): 83.77–87.66%

Molecule: C=C1[C@@H](O)[C@@H]2O[C@]3(CC[C@H](/C=C/[C@@H](C)[C@@H]4CC(C)=C[C@@]5(O[C@H](C[C@@](C)(O)C(=O)O)CC[C@H]5O)O4)O3)CC[C@H]2O[C@@H]1[C@@H](O)C[C@H](C)[C@H]1O[C@@]2(CCCCO2)CC[C@H]1C [okadaic acid]
- IC50 (recombinant PxPP5 [8]): 25 ± 1.64 nM
- IC50 (E. chinensis PP5): 190 nM
- IC50 (recombinant HaPP5 [10]): 41.8 ± 3.31 nM
- IC50 (recombinant MsPP5 [11]): 17.6 ± 3.2 nM
- Residual phosphatase activities of the three crude extracts (crude PPP extracts): 16.37–18.89%

B1: PxPP5 (Plutella xylostella) (protein)
chain: T2 sequence (W0FSW2 1-491)
- Km [12]: 8.83 ± 0.75 mM

B2: HaPP5 (Helicoverpa armigera) (protein)
chain: T1 sequence (A0A059TAS5 1-490)
- Km [12]: 8.64 ± 0.95 mM

B3: MsPP5 (Mythimna separata) (protein)
chain: T3 sequence (A0A059TAW5 1-490)
- Km [12]: 9.01 ± 0.51 mM
